# Results taken from PubChem BioAssay (NCI).
#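 48-hour exposure; five concentrations; linearly interpolated endpoints. Here, GI50 denotes the concentration required for 50% inhibition of growth. TGI marks complete inhibition of growth.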
# Legend:
# Assay in all cases: NCI tumour cell line growth inhibition, 48 h
# HCT-116 colon = system: HCT-116 colon
# KM12 colon = system: KM12 colon
# UACC-62 melanoma = system: UACC-62 melanoma
# DLD-1 colon = system: DLD-1 colon
# SK-MEL-2 melanoma = system: SK-MEL-2 melanoma
# NCI-H226 lung = system: NCI-H226 lung
# XF 498 CNS = system: XF 498 CNS
# UO-31 renal = system: UO-31 renal
# SNB-78 CNS = system: SNB-78 CNS
# DMS 114 small cell lung = system: DMS 114 small cell lung
# SK-OV-3 ovarian = system: SK-OV-3 ovarian
# SNB-75 CNS = system: SNB-75 CNS
# MOLT-4 leukemia = system: MOLT-4 leukemia
# SK-MEL-28 melanoma = system: SK-MEL-28 melanoma
# LOX IMVI melanoma = system: LOX IMVI melanoma
# KM20L2 colon = system: KM20L2 colon
# HCT-15 colon = system: HCT-15 colon
# NCI-H460 lung = system: NCI-H460 lung
# RXF-631 renal = system: RXF-631 renal
# HT29 colon = system: HT29 colon
# LXFL 529 NSCLC = system: LXFL 529 NSCLC
# NCI-H23 lung = system: NCI-H23 lung
# U251 CNS = system: U251 CNS
# OVCAR-4 ovarian = system: OVCAR-4 ovarian
# M19-MEL melanoma = system: M19-MEL melanoma
# SK-MEL-5 melanoma = system: SK-MEL-5 melanoma
# RXF 393 renal = system: RXF 393 renal
# ACHN renal = system: ACHN renal
# CAKI-1 renal = system: CAKI-1 renal
# IGROV1 ovarian = system: IGROV1 ovarian
# SF-295 CNS = system: SF-295 CNS
# HOP-92 NSCLC = system: HOP-92 NSCLC
# SR leukemia = system: SR leukemia
# NCI-H522 lung = system: NCI-H522 lung
# TK-10 renal = system: TK-10 renal
# SW-620 colon = system: SW-620 colon
# OVCAR-5 ovarian = system: OVCAR-5 ovarian
# CCRF-CEM leukemia = system: CCRF-CEM leukemia
# A498 renal = system: A498 renal
# RPMI-8226 leukemia = system: RPMI-8226 leukemia
# SNB-19 CNS = system: SNB-19 CNS
# A549 NSCLC = system: A549 NSCLC
# HCC-2998 colon = system: HCC-2998 colon
# K-562 leukemia = system: K-562 leukemia
# HL-60(TB) leukemia = system: HL-60(TB) leukemia
# OVCAR-3 ovarian = system: OVCAR-3 ovarian
# SN12C renal = system: SN12C renal
# COLO 205 colon = system: COLO 205 colon
# MALME-3M melanoma = system: MALME-3M melanoma
# 786-0 renal = system: 786-0 renal
# M14 melanoma = system: M14 melanoma
# SF-268 CNS = system: SF-268 CNS
# HOP-62 NSCLC = system: HOP-62 NSCLC
# EKVX NSCLC = system: EKVX NSCLC
# OVCAR-8 ovarian = system: OVCAR-8 ovarian
# SF-539 CNS = system: SF-539 CNS
# HOP-18 NSCLC = system: HOP-18 NSCLC
# DMS 273 small cell lung = system: DMS 273 small cell lung
# UACC-257 melanoma = system: UACC-257 melanoma
# P388 leukemia = system: P388 leukemia
# MCF7 breast = system: MCF7 breast
# NCI/ADR-RES ovarian = system: NCI/ADR-RES ovarian
# P388/ADR leukemia = system: P388/ADR leukemia
structure (smiles),measurement,setting,value
CC(=O)N/C(=C\c1cccc([N+](=O)[O-])c1)c1nc2c3c(ccc2[nH]1)C(=O)c1ccccc1C3=O,TGI,HCT-116 colon,> 100 µM
same,TGI,KM12 colon,> 100 µM
same,TGI,UACC-62 melanoma,> 100 µM
same,TGI,DLD-1 colon,> 100 µM
same,TGI,SK-MEL-2 melanoma,> 100 µM
same,TGI,NCI-H226 lung,> 100 µM
same,TGI,XF 498 CNS,> 100 µM
same,TGI,UO-31 renal,> 69.3 µM
same,TGI,SNB-78 CNS,> 100 µM
same,TGI,DMS 114 small cell lung,> 100 µM
same,TGI,SK-OV-3 ovarian,> 100 µM
same,TGI,SNB-75 CNS,> 100 µM
same,TGI,MOLT-4 leukemia,> 62.9 µM
same,TGI,SK-MEL-28 melanoma,> 100 µM
same,TGI,LOX IMVI melanoma,> 100 µM
same,TGI,KM20L2 colon,> 100 µM
same,TGI,HCT-15 colon,> 100 µM
same,TGI,NCI-H460 lung,> 100 µM
same,TGI,RXF-631 renal,> 100 µM
same,TGI,HT29 colon,> 100 µM
same,TGI,LXFL 529 NSCLC,> 100 µM
same,TGI,NCI-H23 lung,> 100 µM
same,TGI,U251 CNS,> 100 µM
same,TGI,OVCAR-4 ovarian,> 100 µM
same,TGI,M19-MEL melanoma,> 100 µM
same,TGI,SK-MEL-5 melanoma,> 100 µM
same,TGI,RXF 393 renal,> 100 µM
same,TGI,ACHN renal,47.9 µM
same,TGI,CAKI-1 renal,> 100 µM
same,TGI,IGROV1 ovarian,> 100 µM
same,TGI,SF-295 CNS,> 100 µM
same,TGI,HOP-92 NSCLC,> 100 µM
same,TGI,SR leukemia,> 100 µM
same,TGI,NCI-H522 lung,99.8 µM
same,TGI,TK-10 renal,> 100 µM
same,TGI,SW-620 colon,> 100 µM
same,TGI,OVCAR-5 ovarian,> 100 µM
same,TGI,CCRF-CEM leukemia,> 100 µM
same,TGI,A498 renal,> 100 µM
same,TGI,RPMI-8226 leukemia,> 100 µM
same,TGI,SNB-19 CNS,> 100 µM
same,TGI,A549 NSCLC,> 100 µM
same,TGI,HCC-2998 colon,> 100 µM
same,TGI,K-562 leukemia,> 100 µM
same,TGI,HL-60(TB) leukemia,59.8 µM
same,TGI,OVCAR-3 ovarian,> 100 µM
same,TGI,SN12C renal,> 100 µM
same,TGI,COLO 205 colon,> 100 µM
same,TGI,MALME-3M melanoma,> 100 µM
same,TGI,786-0 renal,> 100 µM
same,TGI,M14 melanoma,> 100 µM
same,TGI,SF-268 CNS,> 100 µM
same,TGI,HOP-62 NSCLC,> 100 µM
same,TGI,EKVX NSCLC,> 100 µM
same,TGI,OVCAR-8 ovarian,> 100 µM
same,TGI,SF-539 CNS,> 100 µM
Cc1ccc(NC(=O)CC(=O)n2nc(-c3ccccc3)c(N=Nc3ccccc3Cl)c2-c2ccccc2)cc1,TGI,HCT-116 colon,> 100 µM
same,GI50,KM12 colon,> 100 µM
same,TGI,KM12 colon,> 100 µM
same,TGI,UACC-62 melanoma,> 100 µM
same,GI50,SK-MEL-2 melanoma,> 100 µM
same,TGI,SK-MEL-2 melanoma,> 100 µM
same,TGI,XF 498 CNS,> 100 µM
same,GI50,UO-31 renal,> 100 µM
same,TGI,UO-31 renal,> 100 µM
same,GI50,DMS 114 small cell lung,> 100 µM
same,TGI,DMS 114 small cell lung,> 100 µM
same,TGI,SK-OV-3 ovarian,60.5 µM
same,TGI,SNB-75 CNS,42.1 µM
same,GI50,MOLT-4 leukemia,> 100 µM
same,TGI,MOLT-4 leukemia,> 100 µM
same,TGI,SK-MEL-28 melanoma,> 100 µM
same,TGI,LOX IMVI melanoma,> 100 µM
same,TGI,HOP-18 NSCLC,> 100 µM
same,GI50,KM20L2 colon,> 100 µM
same,TGI,KM20L2 colon,> 100 µM
same,GI50,HCT-15 colon,> 100 µM
same,TGI,HCT-15 colon,> 100 µM
same,TGI,NCI-H460 lung,> 100 µM
same,TGI,RXF-631 renal,> 100 µM
same,GI50,HT29 colon,> 100 µM
same,TGI,HT29 colon,> 100 µM
same,TGI,LXFL 529 NSCLC,> 100 µM
same,TGI,NCI-H23 lung,> 100 µM
same,TGI,U251 CNS,> 100 µM
same,TGI,DMS 273 small cell lung,> 100 µM
same,TGI,OVCAR-4 ovarian,87.2 µM
same,GI50,M19-MEL melanoma,> 100 µM
same,TGI,M19-MEL melanoma,> 100 µM
same,TGI,SK-MEL-5 melanoma,> 100 µM
same,TGI,ACHN renal,> 100 µM
same,TGI,CAKI-1 renal,> 100 µM
same,GI50,IGROV1 ovarian,> 100 µM
same,TGI,IGROV1 ovarian,> 100 µM
same,TGI,SF-295 CNS,> 100 µM
same,TGI,HOP-92 NSCLC,63 µM
same,TGI,SR leukemia,> 100 µM
same,TGI,NCI-H522 lung,> 100 µM
same,TGI,TK-10 renal,> 100 µM
same,TGI,SW-620 colon,> 100 µM
same,TGI,OVCAR-5 ovarian,> 100 µM
same,TGI,CCRF-CEM leukemia,> 100 µM
same,TGI,A498 renal,> 100 µM
same,GI50,RPMI-8226 leukemia,> 100 µM
same,TGI,RPMI-8226 leukemia,> 100 µM
same,TGI,SNB-19 CNS,> 100 µM
same,TGI,A549 NSCLC,> 100 µM
same,GI50,HCC-2998 colon,> 100 µM
same,TGI,HCC-2998 colon,> 100 µM
same,TGI,K-562 leukemia,> 100 µM
same,GI50,HL-60(TB) leukemia,93.8 µM
same,TGI,HL-60(TB) leukemia,> 100 µM
same,GI50,OVCAR-3 ovarian,> 100 µM
same,TGI,OVCAR-3 ovarian,> 100 µM
same,GI50,SN12C renal,> 100 µM
same,TGI,SN12C renal,> 100 µM
same,GI50,COLO 205 colon,> 100 µM
same,TGI,COLO 205 colon,> 100 µM
same,TGI,MALME-3M melanoma,> 100 µM
same,TGI,786-0 renal,> 100 µM
same,TGI,M14 melanoma,> 100 µM
same,GI50,SF-268 CNS,> 100 µM
same,TGI,SF-268 CNS,> 100 µM
same,TGI,HOP-62 NSCLC,> 100 µM
same,GI50,UACC-257 melanoma,> 100 µM
same,TGI,UACC-257 melanoma,> 100 µM
same,TGI,EKVX NSCLC,> 100 µM
same,TGI,OVCAR-8 ovarian,> 100 µM
same,TGI,SF-539 CNS,> 100 µM
O=C(O)C1Cc2c([nH]c3ccccc23)C=N1 (centres undefined),TGI,HCT-116 colon,> 100 µM
same,TGI,KM12 colon,> 31.7 µM
same,TGI,UACC-62 melanoma,> 100 µM
same,TGI,DLD-1 colon,> 100 µM
same,TGI,SK-MEL-2 melanoma,> 100 µM
same,TGI,XF 498 CNS,> 100 µM
same,TGI,UO-31 renal,> 100 µM
same,TGI,SNB-78 CNS,> 100 µM
same,TGI,DMS 114 small cell lung,> 100 µM
same,TGI,SK-OV-3 ovarian,> 100 µM
same,TGI,SNB-75 CNS,> 100 µM
same,TGI,MOLT-4 leukemia,> 100 µM
same,TGI,SK-MEL-28 melanoma,> 100 µM
same,TGI,LOX IMVI melanoma,> 100 µM
same,TGI,HOP-18 NSCLC,> 100 µM
same,TGI,KM20L2 colon,> 100 µM
same,TGI,HCT-15 colon,> 100 µM
same,TGI,NCI-H460 lung,> 100 µM
same,TGI,HT29 colon,> 100 µM
same,TGI,NCI-H23 lung,> 100 µM
same,TGI,U251 CNS,> 100 µM
same,TGI,DMS 273 small cell lung,> 100 µM
same,TGI,P388 leukemia,> 100 µM
same,TGI,OVCAR-4 ovarian,> 100 µM
same,TGI,M19-MEL melanoma,> 100 µM
same,TGI,SK-MEL-5 melanoma,> 100 µM
same,TGI,RXF 393 renal,> 100 µM
same,TGI,CAKI-1 renal,> 100 µM
same,TGI,IGROV1 ovarian,> 100 µM
same,TGI,SF-295 CNS,> 100 µM
same,TGI,HOP-92 NSCLC,> 100 µM
same,TGI,MCF7 breast,> 100 µM
same,TGI,NCI-H522 lung,> 100 µM
same,TGI,SW-620 colon,> 100 µM
same,TGI,NCI/ADR-RES ovarian,> 100 µM
same,TGI,OVCAR-5 ovarian,> 100 µM
same,TGI,CCRF-CEM leukemia,> 100 µM
same,TGI,A498 renal,> 100 µM
same,TGI,RPMI-8226 leukemia,> 100 µM
same,TGI,SNB-19 CNS,> 100 µM
same,TGI,A549 NSCLC,> 100 µM
same,TGI,HCC-2998 colon,> 100 µM
same,TGI,K-562 leukemia,> 100 µM
same,TGI,HL-60(TB) leukemia,> 100 µM
same,TGI,OVCAR-3 ovarian,> 100 µM
same,TGI,SN12C renal,> 100 µM
same,TGI,COLO 205 colon,> 100 µM
same,TGI,P388/ADR leukemia,> 100 µM
same,TGI,MALME-3M melanoma,> 100 µM
same,TGI,SF-268 CNS,> 100 µM
same,TGI,HOP-62 NSCLC,> 100 µM
same,TGI,UACC-257 melanoma,> 100 µM
same,TGI,EKVX NSCLC,> 100 µM
same,TGI,OVCAR-8 ovarian,> 100 µM
same,TGI,SF-539 CNS,> 100 µM
